How the values were obtained:
Type in all cases: in vivo
[1] = tested on: Diamond Back Moth (Plutella xylostella); assay: Diamond back moth, cabbage leaf dip test; conditions: foliar, 300 ppm, 3rd instar larvae on dipped cabbage leaves, 72 hours after treatment, in comparison with untreated controls, read-out: mortality
Experimental: B.1 Diamond Back Moth (Plutella xylostella)
The active compound was dissolved at the desired concentration in a mixture of 1:1 (vol:vol) distilled water:aceteone. Surfactant (Kinetic HV) was added at a rate of 0.01% (vol/vol). The test solution was prepared at the day of use.
Leaves of cabbage were dipped in test solution and air-dried. Treated leaves were placed in petri dishes lined with moist filter paper and inoculated with ten 3rd instar larvae. Mortality was recorded 72 hours after treatment.

[2] = tested on: Green Peach Aphid (Myzus persicae); assay: Green peach aphid, systemic test on artificial diet in microtiter plates; conditions: 72 h, 2500 ppm, adult aphids on treated artificial diet, 3 days, in comparison with untreated controls, read-out: mortality
From the text: B.2 Green Peach Aphid (Myzus persicae)
For evaluating control of green peach aphid (Myzus persicae) through systemic means the test unit consisted of 96-well-microtiter plates containing liquid artificial diet under an artificial mem brane.
The compounds were formulated using a solution containing 75% v/v water and 25% v/v DMSO. Different concentrations of formulated compounds were pipetted into the aphid diet, using a custom built pipetter, at two replications.
After application, 5-8 adult aphids were placed on the artificial membrane inside the microtiter plate wells. The aphids were then allowed to suck on the treated aphid diet and incubated at about 23±1° C. and about 50±5% relative humidity for 3 days. Aphid mortality and fecundity was then visually assessed.

[3] = tested on: Boll Weevil (Anthonomus grandis); assay: Boll weevil, insect diet microtiter plate test; conditions: 120 h, 2500 ppm, eggs on sprayed insect diet, egg and larval mortality after 5 days, in comparison with untreated controls, read-out: mortality
Experimental: B.5 Boll Weevil (Anthonomus grandis)
For evaluating control of boll weevil (Anthonomus grandis) the test unit consisted of 96-well-microtiter plates containing an insect diet and 5-10 A. grandis eggs.
The compounds were formulated using a solution containing 75% v/v water and 25% v/v DMSO. Different concentrations of formulated compounds were sprayed onto the insect diet at 5 μl, using a custom built micro atomizer, at two replications.
After application, microtiter plates were incubated at about 25±1° C. and about 75±5% relative humidity for 5 days. Egg and larval mortality was then visually assessed.

[4] = tested on: Mediterranean Fruitfly (Ceratitis capitata); assay: Mediterranean fruitfly, insect diet microtiter plate test; conditions: 120 h, 2500 ppm, eggs on sprayed insect diet, egg and larval mortality after 5 days, in comparison with untreated controls, read-out: mortality
Experimental: B.6 Mediterranean Fruitfly (Ceratitis capitata)
For evaluating control of Mediterranean fruitfly (CeratitiS capitata) the test unit consisted of microtiter plates containing an insect diet and 50-80 C. capitata eggs. The compounds were formulated using a solution containing 75% v/v water and 25% v/v DMSO. Different concentrations of formulated compounds were sprayed onto the insect diet at 5 μl, using a custom built micro atomizer, at two replications.
After application, microtiter plates were incubated at about 28±1° C. and about 80±5% relative humidity for 5 days. Egg and larval mortality was then visually assessed.

[5] = tested on: Rice Green Leafhopper (Nephotettix virescens); assay: Rice green leafhopper, sprayed rice seedlings; conditions: 300 ppm, adults on sprayed rice seedlings, after 72 hours, in comparison with untreated controls, read-out: mortality
Experimental: B.8 Rice Green Leafhopper (Nephotettix virescens)
Rice seedlings were cleaned and washed 24 hours before spraying. The active compounds were formulated in 1:1 acetone:water (vol:vol), and 0.01% vol/vol surfactant (Kinetic HV) was added. Potted rice seedlings were sprayed with 5-6 ml test solution, air dried, covered with Mylar cages cages and inoculated with 10 adults. Treated rice plants were kept at about 28-29° C. and relative humidity of about 50-60%. Percent mortality was recorded after 72 hours.

[6] = tested on: Red Spider Mite (Tetranychus kanzawai); assay: Red spider mite, sprayed cowpea beans; conditions: 300 ppm, mites on sprayed cowpea beans, 72 hours after treatment, in comparison with untreated controls, read-out: mortality
Experimental: B.9 Red Spider Mite (Tetranychus kanzawai)
The active compound was dissolved at the desired concentration in a mixture of 1:1 (vol:vol) distilled water:acetone. Add surfactant (Kinetic HV) was added at a rate of 0.01% (vol/vol). The test solution was prepared at the day of use.
Potted cowpea beans of 4-5 days of age were cleaned with tap water and sprayed with 1-2 ml of the test solution using air driven hand atomizer. The treated plants were allowed to air dry and afterwards inoculated with 30 or more mites by clipping a cassava leaf section from rearing population. Treated plants were placed inside a holding room at about 25-27° C. and about 50-60% relative humidity. Percent mortality was assessed 72 hours after treatment.

[7] = tested on: Southern Armyworm (Spodoptera eridania); assay: Southern armyworm, sprayed lima bean plants; conditions: 96 h, 1 ppm, larvae on sprayed lima bean plants, 4 days after treatment, in comparison with untreated controls, read-out: mortality
Experimental: B.10 Southern Armyworm (Spodoptera eridania)
The active compounds were formulated in cyclohexanone as a 10,000 ppm solution supplied in tubes. The tubes were inserted into an automated electrostatic sprayer equipped with an atomizing nozzle and they served as stock solutions for which lower dilutions were made in 50% acetone:50% water (v/v). A nonionic surfactant (Kinetic®) was included in the solution at a volume of 0.01% (v/v).
Lima bean plants (variety Sieva) were grown 2 plants to a pot and selected for treatment at the 1st true leaf stage. Test solutions were sprayed onto the foliage by an automated electrostatic plant sprayer equipped with an atomizing spray nozzle. The plants were dried in the sprayer fume hood and then removed from the sprayer. Each pot was placed into perforated plastic bags with a zip closure. About 10 to 11 armyworm larvae were placed into the bag and the bags zipped closed. Test plants were maintained in a growth room at about 25° C. and about 20-40% relative humidity for 4 days, avoiding direct exposure to fluorescent light (24 hour photoperiod) to prevent trapping of heat inside the bags. Mortality and reduced feeding were assessed 4 days after treatment, compared to untreated control plants.

[8] = tested on: Green Soldier Stink Bug (Nezara viridula); assay: Green soldier stink bug, sprayed soybean pods in Petri dishes; conditions: 120 h, 300 ppm, late 3rd instar on soybean pods, after 5 days, in comparison with untreated controls, read-out: mortality
Experimental: B.11 Green Soldier Stink Bug (Nezara viridula)
The active compound was dissolved at the desired concentration in a mixture of 1:1 (vol:vol) distilled water:acetone. Surfactant (Kinetic HV) was added at a rate of 0.01% (vol/vol). The test solution was prepared at the day of use.
Soybean pods were placed in glass Petri dishes lined with moist filter paper and inoculated with ten late 3rd instar N. viridula. Using a hand atomizer, approximately 2 ml solution is sprayed into each Petri dish. Assay arenas were kept at about 25° C. Percent mortality was recorded after 5 days.

O=C(NC1CS(=O)(=O)C1)c1ccc(C2=NCC(c3cc(Cl)c(F)c(Cl)c3)(C(F)(F)F)C2)c2c1CCC2 (centres unmarked) [Compound 2-3, 7-[3-(3,5-Dichloro-4-fluoro-phenyl)-3-(trifluoromethyl)-2,4-dihydropyrrol-5-yl]-N-(1,1-dioxothietan-3-yl)indane-4-carboxamide]
≥ 75%: mortality at 300 ppm [1] | mortality at 2500 ppm [2] | mortality at 2500 ppm [3] | mortality at 2500 ppm [4] | mortality at 300 ppm [5] | mortality at 300 ppm [6] | mortality at 1 ppm [7] | mortality at 300 ppm [8]
